Results: publication PMC10060639, “Prediction and bioactivity of small-molecule antimicrobial peptides from Protaetia brevitarsis Lewis larvae” (Frontiers in Microbiology, 2023)
“And” between values parts separate entries of the source, which are not always exact repeats. Equal entries are not always repeated.

Experiments:
[1] = system: C. albicans CMCC(F) 98001; experiment: agar punch method, inhibition circle; format: cell-based, Candida albicans; details: 6 mm hole, 55 μL of 1 mg/mL, SDA, 28°C, 16–18 h, mean ± SD, three replicates, + control given per plate group
Description: (§1) Staphylococcus aureus CMCC(B) 26003, B. thuringiensis, E. coli, and P. aeruginosa CMCC(B)10104 were cultured in NA medium and C. albicans CMCC(F) 98001 was cultured in SDA medium. They were incubated in a constant-temperature (bacteria: 37°C; fungi: 28°C) incubator for 16–20 h. Thereafter, single colonies were picked and incubated in 50 mL MHB at 160 rpm/min at the optimal growth temperature (bacteria: 37°C; fungi: 28°C). Microbial suspensions of 1 × 10^6 CFU/mL were then prepared ([Chen et al., 2016]).
(§2) 100 μL of 1 × 10^6 CFU/mL microbial suspension (E. coli, P. aeruginosa CMCC(B)10104, B. thuringiensis, S. aureus CMCC(B) 26003, or C. albicans CMCC(F) 98001) was evenly applied to dishes containing 20 mL NA (bacteria) or SDA (fungi). After the microbial solution solidified, six holes per dish were punched with a sterile pipette tip of 6 mm in diameter, with each hole spaced >20 mm apart and > 10 mm apart from the edge of the dish. […] Next, 55 μL of 1 mg/mL control/treatment was added to each hole and incubated in a constant-temperature (bacteria: 37°C; fungi: 28°C) incubator for 16–18 h ([Chen et al., 2016]; [Gong et al., 2022]), with three replicates for each treatment group. The diameter of the inhibition circle was measured using ImageJ software (National Institutes of Health, United States) in order to preliminarily determine whether the candidate peptides had inhibitory activity.

E. coli [2] = experiment: dynamic antimicrobial analysis (OD600 growth over 10 h); format: cell-based, Escherichia coli; details: 1/4× MIC, OD600 every hour for 10 h, 37°C, n = 3
Description: (§3) Therefore, the follow-up experiments involved these two bacteria, along with the three AMPs with the best antimicrobial effects (FD10, FD12, and FD15). The dynamic antimicrobial effects were analyzed by measuring the effects of the AMPs on bacterial growth over 10 h. First, 100 μL microbial solution (1.0 × 10^6 CFU/mL) was added to the wells of a 96-well culture plate, and then 100 μL AMP (at 1× and 1/4× MIC) was added and the mixtures were cultured at 37°C ([Mishra et al., 2013]; [Memariani et al., 2016]). 100 μL MHB with 100 μL microbial solution was used as the control group. The optical density at 600 nm (OD600) was measured every hour for 10 h using a microplate reader ([Hou et al., 2007]). The experiment was conducted in triplicate.

E. coli [3] = experiment: agar punch method, inhibition circle; format: cell-based, Escherichia coli; details: 6 mm hole, 55 μL of 1 mg/mL, NA, 37°C, 16–18 h, mean ± SD, three replicates, + control given per plate group
Description: as §1, §2

S. aureus CMCC(B) 26003 [4] = experiment: agar punch method, inhibition circle; format: cell-based, Staphylococcus aureus; details: 6 mm hole, 55 μL of 1 mg/mL, NA, 37°C, 16–18 h, mean ± SD, three replicates, + control given per plate group
Description: as §1, §2

[5] = system: mouse RAW 264.7 macrophages; experiment: cytotoxicity, MTT assay; format: cell-based; details: at 256 μg/mL, 24 h incubation, absorbance 570 nm, n = 3
Description: Followed the removing of the MTT, dimethyl sulfoxide (DMSO) (150 μL/well) was added and the absorbance was measured at 570 nm. Untreated cells were used as a control. […] The cytotoxicity detection was repeated in triplicate.

B. thuringiensis = experiment: agar punch method, inhibition circle; format: cell-based, Bacillus thuringiensis; details: 6 mm hole, 55 μL of 1 mg/mL, NA, 37°C (Fig. S3C: 30°C), 16–18 h, mean ± SD, three replicates, + control given per plate group
Description: as §1, §2

S. aureus CMCC(B) 26003 [6] = experiment: dynamic antimicrobial analysis (OD600 growth over 10 h); format: cell-based, Staphylococcus aureus; details: 1/4× MIC, OD600 every hour for 10 h, 37°C, n = 3
Description: as §3

[7] = system: P. aeruginosa CMCC(B)10104; experiment: agar punch method, inhibition circle; format: cell-based, Pseudomonas aeruginosa; details: 6 mm hole, 55 μL of 1 mg/mL, NA, 37°C, 16–18 h, mean ± SD, three replicates, + control given per plate group, listed as +
Description: as §1, §2

Compound: CC1(C)S[C@@H]2[C@H](NC(=O)[C@H](N)c3ccccc3)C(=O)N2[C@H]1C(=O)O [ampicillin, reference compound]
- Inhibition circle diameter (mm) C. albicans CMCC(F) 98001 [1]: 16.16 ± 0.51 mm and 17.74 ± 0.47 mm and 17.80 ± 0.25 mm and 19.69 ± 0.53 mm
- time after which E. coli growth began (E. coli [2]): > 1 h
- Inhibition circle diameter (mm) E. coli (E. coli [3]): 29.37 mm
- Inhibition circle diameter (mm) E. coli (E. coli [3]; listed as +): 27.03 ± 0.47 mm and 27.84 ± 0.30 mm and 30.50 ± 0.21 mm and 29.37 ± 0.31 mm
- Inhibition circle diameter (mm) S. aureus CMCC(B) 26003 (S. aureus CMCC(B) 26003 [4]): 19.98 mm
- Inhibition circle diameter (mm) S. aureus CMCC(B) 26003 (S. aureus CMCC(B) 26003 [4]; listed as +): 14.35 ± 0.49 mm and 15.58 ± 0.58 mm and 16.02 ± 0.34 mm and 19.98 ± 0.42 mm
- survival rate of mouse RAW 264.7 macrophages [5]: 84.90%
- Inhibition circle diameter (mm) B. thuringiensis (B. thuringiensis): 17.95 ± 0.36 mm and 13.99 ± 0.61 mm and 17.47 ± 0.19 mm and 15.97 ± 0.49 mm
- time after which S. aureus CMCC(B) 26003 growth began (S. aureus CMCC(B) 26003 [6]): around 2 h
- Inhibition circle diameter (mm) P. aeruginosa CMCC(B)10104 [7]: 15.10 ± 0.43 mm and 16.52 ± 0.55 mm and 16.99 ± 0.39 mm and 14.48 ± 0.29 mm
